From PMC5862592, “CDK8/19 inhibition induces premature G1/S transition and ATR-dependent cell death in prostate cancer cells” (Oncotarget, 2018) come the findings set out here.

Broadly, the inhibition is the share of the control response that was lost under treatment.

For assay [1], the target named is T1, HASPIN (Homo sapiens, UniProt Q8TF76). The assay is described as follows: biochemical. Further details: KINOMEscan active site-directed competition binding assay (DiscoveRx), 456 kinases, per cent of control at 300 nM. The following applies: sheet T-418; read-out: Percent of Control (%). Summed up:
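Each compound is tested at 300 nmol/L against a panel of 456 kinases. Interaction is quantified by competition for the kinase active site.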

Assay [2] addresses T1, HASPIN. The assay is described as follows: KINOMEscan competition binding at a single concentration ([…]). The following applies: read-out: % inhibition at 300 nM.

T1 sequence (Q8TF76 whole entry): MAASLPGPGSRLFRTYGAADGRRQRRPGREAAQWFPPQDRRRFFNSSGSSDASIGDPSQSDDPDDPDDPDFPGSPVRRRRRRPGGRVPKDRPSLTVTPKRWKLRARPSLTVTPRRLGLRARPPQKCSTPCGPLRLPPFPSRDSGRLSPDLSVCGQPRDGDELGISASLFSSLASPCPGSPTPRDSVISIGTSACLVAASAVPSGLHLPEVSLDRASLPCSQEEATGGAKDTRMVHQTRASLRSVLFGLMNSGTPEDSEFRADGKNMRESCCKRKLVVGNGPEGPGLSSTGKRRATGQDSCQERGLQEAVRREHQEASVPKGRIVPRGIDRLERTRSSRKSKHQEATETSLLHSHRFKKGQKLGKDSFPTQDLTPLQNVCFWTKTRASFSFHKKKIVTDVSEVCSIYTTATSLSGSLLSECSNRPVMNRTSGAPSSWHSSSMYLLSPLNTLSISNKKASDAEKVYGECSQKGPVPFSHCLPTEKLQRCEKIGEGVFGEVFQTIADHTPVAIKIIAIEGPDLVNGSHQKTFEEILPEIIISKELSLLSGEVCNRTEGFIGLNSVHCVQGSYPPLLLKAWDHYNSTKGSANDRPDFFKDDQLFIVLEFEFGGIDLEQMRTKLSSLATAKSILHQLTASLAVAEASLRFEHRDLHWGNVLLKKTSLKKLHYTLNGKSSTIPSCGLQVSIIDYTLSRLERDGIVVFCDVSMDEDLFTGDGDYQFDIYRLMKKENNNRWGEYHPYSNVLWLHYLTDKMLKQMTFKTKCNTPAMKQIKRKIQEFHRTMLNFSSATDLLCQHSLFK

Regarding `O=C(/C=C/c1cnccc1-c1ccc(F)cc1)Nc1ccc(CCc2nnco2)cc1` [T-418, (2E)-3-(4-(4-fluorophenyl)pyridin-3-yl)-N-(4-(2-(1,3,4-oxadiazol-2-yl)ethyl)phenyl)acrylamide], in assay [1], the remaining binding at 0.3 µM was 90%. Regarding `Cc1ncccc1Oc1sc(C(N)=O)c2c1-c1c(cnn1C)CC2` [T-474, 1-methyl-8-((2-methylpyridin-3-yl)oxy)-4,5-dihydro-1H-thieno[3,4-g]indazole-6-carboxamide], the inhibition at 0.3 µM in assay [2] was determined as 99%.
